Test results taken from the supplement of paper PMC10307832.

Key:
Experiment in all cases: relative viability (nuclei count vs DMSO), 5 days (fraction); higher = more cells survive
SK-LU-1 = test system: SK-LU-1
Procedure, shortened: (§1)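 The day after seeding in 1536-well plates, lung cancer cell lines were treated by pin tool with a single drug, or with a fixed anchor-drug dose together with five library-drug doses (not always all listed) in √10 steps. After 5 days, a combined fix-and-stain solution (final 0.05% Triton X-100, 1% formaldehyde, 1 ug/ml Hoechst) was added. Nuclei counted on 4× images gave relative viability as treated counts over vehicle counts, reported as the median of duplicate plates.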

NCI-H2126 = test system: NCI-H2126
Procedure, shortened: as §1

NCI-H1915 = test system: NCI-H1915
Procedure, shortened: as §1

SW 1573 = test system: SW 1573
Procedure, shortened: as §1

NCI-H647 = test system: NCI-H647
Procedure, shortened: as §1

NCI-H2347 = test system: NCI-H2347
Procedure, shortened: as §1

NCI-H322M = test system: NCI-H322M
Procedure, shortened: as §1

NCI-H2023 = test system: NCI-H2023
Procedure, shortened: as §1

LCLC-97TM1 = test system: LCLC-97TM1
Procedure, shortened: as §1

H3255 = test system: H3255
Procedure, shortened: as §1

NCI-H2009 = test system: NCI-H2009
Procedure, shortened: as §1

EPLC-272H = test system: EPLC-272H
Procedure, shortened: as §1

NCI-H1993 = test system: NCI-H1993
Procedure, shortened: as §1

PC-14 = test system: PC-14
Procedure, shortened: as §1

NCI-H661 = test system: NCI-H661
Procedure, shortened: as §1

HOP-62 = test system: HOP-62
Procedure, shortened: as §1

LXF-289 = test system: LXF-289
Procedure, shortened: as §1

NCI-H727 = test system: NCI-H727
Procedure, shortened: as §1

NCI-H1734 = test system: NCI-H1734
Procedure, shortened: as §1

EMC-BAC-2 = test system: EMC-BAC-2
Procedure, shortened: as §1

NCI-H2085 = test system: NCI-H2085
Procedure, shortened: as §1

## CC(=O)O[C@@]12CO[C@@H]1C[C@H](O)[C@@]1(C)C(=O)[C@H](O)C3=C(C)[C@@H](OC(=O)[C@H](O)[C@@H](NC(=O)OC(C)(C)C)c4ccccc4)C[C@@](O)([C@@H](OC(=O)c4ccccc4)[C@H]21)C3(C)C [Docetaxel] + O=C(CCCCCCC(=O)Nc1ccccc1)NO [Vorinostat] (partner 1 µM)
SK-LU-1; first compound 0.0002 µM
  relative viability: 0.754
SK-LU-1; first compound 0.000632 µM
  relative viability: 0.537
SK-LU-1; first compound 0.002 µM
  relative viability: 0.38
SK-LU-1; first compound 0.006325 µM
  relative viability: 0.349
SK-LU-1; first compound 0.02 µM
  relative viability: 0.226
NCI-H2126; first compound 0.0002 µM
  relative viability: 0.783
NCI-H2126; first compound 0.000632 µM
  relative viability: 0.577
NCI-H2126; first compound 0.002 µM
  relative viability: 0.312
NCI-H2126; first compound 0.006325 µM
  relative viability: 0.337
NCI-H1915; first compound 0.0002 µM
  relative viability: 0.531
NCI-H1915; first compound 0.000632 µM
  relative viability: 0.258
NCI-H1915; first compound 0.002 µM
  relative viability: 0.316
NCI-H1915; first compound 0.006325 µM
  relative viability: 0.174
NCI-H1915; first compound 0.02 µM
  relative viability: 0.0863
SW 1573; first compound 0.0002 µM
  relative viability: 0.547
SW 1573; first compound 0.000632 µM
  relative viability: 0.305
SW 1573; first compound 0.002 µM
  relative viability: 0.228
SW 1573; first compound 0.006325 µM
  relative viability: 0.174
SW 1573; first compound 0.02 µM
  relative viability: 0.126
NCI-H647; first compound 0.0002 µM
  relative viability: 0.486
NCI-H647; first compound 0.000632 µM
  relative viability: 0.32
NCI-H647; first compound 0.002 µM
  relative viability: 0.196
NCI-H647; first compound 0.006325 µM
  relative viability: 0.14
NCI-H647; first compound 0.02 µM
  relative viability: 0.082
NCI-H2347; first compound 0.0002 µM
  relative viability: 0.726
NCI-H2347; first compound 0.000632 µM
  relative viability: 0.554
NCI-H2347; first compound 0.002 µM
  relative viability: 0.418
NCI-H2347; first compound 0.006325 µM
  relative viability: 0.434
NCI-H2347; first compound 0.02 µM
  relative viability: 0.33
NCI-H322M; first compound 0.0002 µM
  relative viability: 0.801
NCI-H322M; first compound 0.000632 µM
  relative viability: 0.843
NCI-H322M; first compound 0.002 µM
  relative viability: 0.906
NCI-H322M; first compound 0.006325 µM
  relative viability: 0.711
NCI-H322M; first compound 0.02 µM
  relative viability: 0.481
NCI-H2023; first compound 0.0002 µM
  relative viability: 0.466
NCI-H2023; first compound 0.002 µM
  relative viability: 0.101
NCI-H2023; first compound 0.006325 µM
  relative viability: 0.0951
NCI-H2023; first compound 0.02 µM
  relative viability: 0.0577
LCLC-97TM1; first compound 0.0002 µM
  relative viability: 0.364
LCLC-97TM1; first compound 0.000632 µM
  relative viability: 0.187
LCLC-97TM1; first compound 0.002 µM
  relative viability: 0.116
LCLC-97TM1; first compound 0.006325 µM
  relative viability: 0.104
LCLC-97TM1; first compound 0.02 µM
  relative viability: 0.0624
H3255; first compound 0.0002 µM
  relative viability: 0.785
H3255; first compound 0.000632 µM
  relative viability: 0.826
H3255; first compound 0.002 µM
  relative viability: 0.629
H3255; first compound 0.006325 µM
  relative viability: 0.345
H3255; first compound 0.02 µM
  relative viability: 0.346
NCI-H2009; first compound 0.0002 µM
  relative viability: 0.714
NCI-H2009; first compound 0.000632 µM
  relative viability: 0.715
NCI-H2009; first compound 0.002 µM
  relative viability: 0.707
NCI-H2009; first compound 0.006325 µM
  relative viability: 0.301
NCI-H2009; first compound 0.02 µM
  relative viability: 0.176
EPLC-272H; first compound 0.0002 µM
  relative viability: 0.532
EPLC-272H; first compound 0.000632 µM
  relative viability: 0.162
EPLC-272H; first compound 0.002 µM
  relative viability: 0.0568
EPLC-272H; first compound 0.006325 µM
  relative viability: 0.0865
EPLC-272H; first compound 0.02 µM
  relative viability: 0.0652
NCI-H1993; first compound 0.0002 µM
  relative viability: 0.594
NCI-H1993; first compound 0.000632 µM
  relative viability: 0.499
NCI-H1993; first compound 0.002 µM
  relative viability: 0.376
NCI-H1993; first compound 0.006325 µM
  relative viability: 0.392
NCI-H1993; first compound 0.02 µM
  relative viability: 0.246
PC-14; first compound 0.0002 µM
  relative viability: 0.725
PC-14; first compound 0.000632 µM
  relative viability: 0.245
PC-14; first compound 0.002 µM
  relative viability: 0.079
PC-14; first compound 0.006325 µM
  relative viability: 0.0579
PC-14; first compound 0.02 µM
  relative viability: 0.0282
NCI-H661; first compound 0.0002 µM
  relative viability: 0.777
NCI-H661; first compound 0.000632 µM
  relative viability: 0.856
NCI-H661; first compound 0.002 µM
  relative viability: 0.728
NCI-H661; first compound 0.006325 µM
  relative viability: 0.493
NCI-H661; first compound 0.02 µM
  relative viability: 0.373
HOP-62; first compound 0.0002 µM
  relative viability: 0.522
HOP-62; first compound 0.000632 µM
  relative viability: 0.346
LXF-289; first compound 0.0002 µM
  relative viability: 0.797
LXF-289; first compound 0.000632 µM
  relative viability: 0.392
LXF-289; first compound 0.002 µM
  relative viability: 0.168
LXF-289; first compound 0.006325 µM
  relative viability: 0.19
LXF-289; first compound 0.02 µM
  relative viability: 0.118
NCI-H727; first compound 0.0002 µM
  relative viability: 1.08
NCI-H727; first compound 0.000632 µM
  relative viability: 1.13
NCI-H727; first compound 0.002 µM
  relative viability: 1.2
NCI-H727; first compound 0.006325 µM
  relative viability: 0.748
NCI-H727; first compound 0.02 µM
  relative viability: 0.67
NCI-H1734; first compound 0.0002 µM
  relative viability: 0.618
NCI-H1734; first compound 0.000632 µM
  relative viability: 0.506
NCI-H1734; first compound 0.002 µM
  relative viability: 0.304
NCI-H1734; first compound 0.006325 µM
  relative viability: 0.328
NCI-H1734; first compound 0.02 µM
  relative viability: 0.207
EMC-BAC-2; first compound 0.0002 µM
  relative viability: 0.388
EMC-BAC-2; first compound 0.000632 µM
  relative viability: 0.293
EMC-BAC-2; first compound 0.002 µM
  relative viability: 0.262
EMC-BAC-2; first compound 0.006325 µM
  relative viability: 0.224
EMC-BAC-2; first compound 0.02 µM
  relative viability: 0.171
NCI-H2085; first compound 0.0002 µM
  relative viability: 0.82
NCI-H2085; first compound 0.000632 µM
  relative viability: 0.734
NCI-H2085; first compound 0.002 µM
  relative viability: 0.736
NCI-H2085; first compound 0.006325 µM
  relative viability: 0.355
NCI-H2085; first compound 0.02 µM
  relative viability: 0.488
